Test results taken from US9512180B2, “Compstatin analogs” (THE REGENTS OF THE UNIVERSITY OF CALIFORNIA, priority 2012, dated 2016).
Values joined by “and” are separate entries in the source; they are usually repeats but may differ in a detail not shown here. Identical values can stand only once. Marks after values point to notes of the source that are not given here. Bridge positions count the residues as written; N and C are the ends. Square brackets hold non-standard residues; d marks the D form. Peptide text beside a SMILES is read from it. Trp(1-Me) = Cn1cc(C[C@H](N)C(=O)O)c2ccccc21

Legend:
[1] = RP-HPLC relative lipophilicity (retention factor k, log k); assay type: physicochemical
Experimental: The effect of the hydrophobic content of compstatin family peptides on relative lipophilicity was evaluated using RP-HPLC, a widely applied indirect technique for the determination of the lipophilicity of drugs and drug candidates. The determination of log P by RP-HPLC is based on the measurement of the retention factor k between the mobile and stationary phase (Eq. 7) of the investigated compound:
[formula] where tR is the retention time of the analyte, and to is the elution time of an unretained analyte. The logarithm of the retention factor is linearly correlated with the logarithm of the partition coefficient log P=a log k+b (8). where a and b are the slope and intercept of the linear equation.
The determination of log P values requires calibration using structurally related compounds, and is beyond the scope of this study. Instead the log k values were used to indicate the relative lipophilicities of this compstatin peptide family.
HPLC experiments were carried out using an Agilent 1100 HPLC with UV detection at 280 nm at 25° C. Separations were performed on a Waters (Milford, Mass.) 4.6×150 mm XTerra MS C18 column with 5 μm pore size using a mobile phase of A: 10 mM phosphate buffer pH=7.4 containing 1% TFA, and B: acetonitrile. The purity of the peptides was verified by an isocratic separation at 28% B and a flow rate of 1 mL/min. Solutions containing 0.6-0.8 mg/mL of Peptides I, III, VI, IX and the parent peptide were prepared in methanol and diluted 5-times with the eluent. All five peptides eluted as single peaks indicating a high degree of purity (FIG. 10).
For the determination of the relative lipophilicities a solution containing each of the peptides was prepared from the stock solutions and injected in triplicate. […] A 0.5 mg/mL solution of aspartic acid was used as the unretained analyte for the determination of the column dead time, 1.439±0.003 min.
RP-HPLC was used to measure the hydrophobicity/lipophilicity content of the compstatin family peptides. The retention of a compound in RP-HPLC depends on its hydrophobicity/lipophilicity content, and is correlated to the octanol-water partition ratio. Lipophilicity describes the partitioning of a compound between an aqueous and a lipidic/hydrophobic environment, and is an essential physicochemical parameter to determine pharmacokinetic behavior according to ADME (absorption, distribution, metabolism, excretion) characterization. Because the compstatin family peptides consist of a hydrophobic and a polar surface, their ability to bind to the hydrophobic cavity of C3, while maintaining a solvent-exposed face has been evaluated here as lipohilicity content, measured by RP-HPLC. In addition, lipohilicity is inversely proportional to aqueous solubility, and therefore can be used to estimate solubility of the peptides in their free (unbound) state.

Human fetal RPE cells = assay: RPE cell-based assay: confocal analysis of deposit-associated C5b-9 (normalized to ApoE); conditions: peptide 1 μM; for deposit-associated C5b-9 (C5b-9/ApoE) relative to positive control: ~24 hrs, mean±S.E.M., RPE cultures of three donors; for Confocal Imaging % of positive control: deposit-associated C5b-9 normalized to ApoE, Mean (S.E.M.)
Experimental: The in vitro drusen biogenesis model was employed. Human fetal RPE cells (Advanced Bioscience Resources, Alameda, Calif.) were cultured on Millipore HA porous supports (Millipore, Cat # PIHA 01250) in Miller medium (Maminishkis et al., 2006) supplemented with 5% fetal calf serum (FCS). Cultures derived from three different donor eyes were employed. Cells were rinsed with warm, sterile PBS and the insert membrane was excised with a scalpel and cut into small (˜4 mm^2) pieces which were placed in wells of a 96-well plate. To minimize effects of inter-culture variability, samples prepared from a single membrane were utilized for each experiment. The samples were rinsed in PBS and then exposed individually to the library of compstatin family peptides at 1 μM in FCS-free Miller medium containing 10% human complement serum (Innovative Research, Cat # IPLA-CSER AB, Lot # L12402). In preliminary experiments, compstatin family Peptides I, III, VI, VII, VIII, IX, and Parent (Table 7), were tested in the RPE cell assay at 100 μM and titrated by C5b-9 ELISA over a concentration range of 0.04-130 μM. […] Also from this assessment, Peptide VI, as well as Peptides I and III, were selected for further studies. Peptides I and III were chosen for comparative studies to Peptide VI, because they contain an arginine residue at position 1. The goal was to determine whether peptides containing arginine at position −1 (Peptide VI) or at position 1 (Peptides I and III) were potent complement inhibitors using the RPE cell assay and had improved aqueous solubility compared to previously known potent analogs. Negative control cells were exposed to Miller medium+5% FCS; positive control cells were exposed to Miller medium+10% human complement serum without inhibitory peptides. Experimental and control medium/inhibitor solutions were pre-mixed on a rocker at room temperature for 30 min, then warmed to 37° C., prior to placement on the samples and incubation for ˜24 hrs at 37° C. in a 7.0% CO2 incubator. Following the incubation period, the medium was removed and stored frozen prior to ELISA analysis. The cell/membrane samples were rinsed in PBS, fixed in cold 4% paraformaldehyde (PFA) in PBS for 20 min, and stored in 0.4% PFA until use in immunohistochemical assays.
Fixed samples were rinsed several times in PBS, embedded in 10% agarose (Type XI, Sigma-Aldrich, Cat # A3038) and sectioned at 100 μm on a vibratome. Sections were blocked with normal donkey serum ( 1/20 in PBT: PBS containing 0.5% bovine serum albumin and 0.1% Triton X-100) overnight at 4° C. The sections were then co-incubated in two primary antibodies (polyclonal goat anti-ApoE, Millipore Cat # AB947; 1/1000 in PBT, and mouse monoclonal anti-05b-9 aEll, Dako Cat # M0777; 1/200 in PBT) overnight at 4° C., then rinsed in PBT and co-incubated in secondary antibodies (Alexa Fluor 546-conjugated donkey anti-goat IgG and Alexa Fluor 488-conjugated donkey anti-mouse IgG, both 1/200 in PBT; Life Technologies Cat # A-11056 and # A-21202) overnight at 4° C. Sections were rinsed in PBT, stained with Hoechst 33342 (Life Technologies Cat # H3570), and mounted on slides with Prolong Gold (Life Technologies Cat # P36930).
Samples were imaged on an Olympus FV1000 confocal laser scanning microscope. A total of 154 single-plane images were acquired at a resolution of 1024×768 pixels and the digital image files were saved in 24-bit tiff format. Digital image analysis was performed with MetaMorph software (Molecular Devices, Sunnyvale, Calif.). For the analysis, a standard measurement region, which included both the RPE cell monolayer and all of the adjacent sub-cellular deposits, was applied to each image. The Set Threshold Color Tool was utilized to analyze each color channel separately; the threshold tool creates a boundary around the objects being measured (i.e., sub-cellular deposits) on the basis of color intensity. […]

[2] = Aqueous solubility by concentration measurement (absorbance at 280 nm) of saturated peptide solutions; assay type: physicochemical
Experimental: The relative lipophilicities of Peptides I, III, VI, IX, and Parent are inversely consistent with solubilities as determined via concentration measurement (absorbance at 280 nm) of saturated peptide solutions, with Peptides I, III, and Parent having approximate aqueous solubilities of >1 mM, Peptide VI>500 μM, and Peptide IX<500 μM.

Structure (SMILES)	Retention factor (k) [1]	logk [1]	relative lipophilicity ([1]; isocratic 24% acetonitrile, pH=7.4 phosphate buffer)	deposit-associated C5b-9 (C5b-9/ApoE) relative to positive control (Human fetal RPE cells; 10% human complement serum) [%]	Confocal Imaging % of positive control (Human fetal RPE cells)	solubility [2] [µM]	Deposit-associated C5b9 (green channel) immunofluorescence, Integrated Area (Human fetal RPE cells; RPE 020207, 10% human complement serum, one value per image)
CC[C@H](C)[C@H](N)C(=O)N[C@H]1CSSC[C@@H](C(=O)N[C@H](C(N)=O)[C@@H](C)O)NC(=O)[C@H](CCCN=C(N)N)NC(=O)[C@H](Cc2cnc[nH]2)NC(=O)[C@H](Cc2cnc[nH]2)NC(=O)CNC(=O)[C@H](Cc2c[nH]c3ccccc23)NC(=O)[C@H](CC(=O)O)NC(=O)[C@H](CCC(N)=O)NC(=O)[C@H](C(C)C)NC(=O)[C@H](C(C)C)NC1=O [Parent, ICV VQDWGH HRCT-NH2, reference compound]	2.472	0.393	least lipophilic	83.2±5.9	83.19 (5.92) % of positive control	–	–
CC(=O)N[C@@H](CCCNC(=N)N)C(=O)N[C@H]1CSSC[C@@H](C(=O)N[C@H](C(N)=O)[C@@H](C)O)NC(=O)[C@H](CCCNC(=N)N)NC(=O)[C@H](Cc2c[nH]cn2)NC(=O)[C@H](C)NC(=O)CNC(=O)[C@H](Cc2c[nH]c3ccccc23)NC(=O)[C@H](CC(=O)O)NC(=O)[C@H](CCC(N)=O)NC(=O)[C@H](Cc2c[nH]c3ccccc23)NC(=O)[C@H](C(C)C)NC1=O [Peptide I, Ac- RCV WQDWGA HRCT-NH2] (Ac-RCVWQDWGAHRCT-NH2; disulfide 2-12)	2.828	0.451	–	55.3±12.3	55.27 (12.30)^a % of positive control	> 1000	–
CC(=O)N[C@@H](CCCNC(=N)N)C(=O)N[C@H]1CSSC[C@@H](C(=O)N[C@H](C(N)=O)[C@@H](C)O)NC(=O)[C@H](CCCNC(=N)N)NC(=O)[C@H](Cc2c[nH]cn2)NC(=O)[C@H](C)NC(=O)CNC(=O)[C@H](Cc2c[nH]c3ccccc23)NC(=O)[C@H](CC(=O)O)NC(=O)[C@H](CCC(N)=O)NC(=O)[C@H](Cc2cn(C)c3ccccc23)NC(=O)[C@H](C(C)C)NC1=O [Peptide III, Ac- RCV meWQDWGA HRCT-NH2] (Ac-RCV[Trp(1-Me)]QDWGAHRCT-NH2; disulfide 2-12)	6.165	0.790	–	20.0±6.8	19.98 (6.84) % of positive control	> 1000	–
CC[C@H](C)[C@H](NC(=O)[C@H](CO)NC(=O)[C@H](CCCNC(=N)N)NC(C)=O)C(=O)N[C@H]1CSSC[C@@H](C(=O)N[C@H](C(N)=O)[C@@H](C)O)NC(=O)[C@H](CCCNC(=N)N)NC(=O)[C@H](Cc2c[nH]cn2)NC(=O)[C@H](C)NC(=O)CNC(=O)[C@H](Cc2c[nH]c3ccccc23)NC(=O)[C@H](CC(=O)O)NC(=O)[C@H](CCC(N)=O)NC(=O)[C@H](Cc2cn(C)c3ccccc23)NC(=O)[C@H](C(C)C)NC1=O [Peptide VI, Ac-RS-ICV meWQDWGA HRCT-NH2]	9.913	0.996	–	14.9±5.6	14.85 (5.61) % of positive control	> 500	86318 pixels and 70370 pixels and 77727 pixels and 91254 pixels and 59969 pixels
